Twelve compounds from patent US20100305121A1, “NOVEL ANTAGONISTS OF THE HUMAN FATTY ACID SYNTHASE THIOESTERASE” (priority 2006, published 2010) can be followed below.

Usually Ki stands for the dissociation constant of the complex between target and ligand, obtained from inhibition or displacement. Read a low Ki as a stronger hold on the target. What is called IC50 is the midpoint of a concentration-inhibition curve.

Data set [1] has as its target T1, human FAS TE (Homo sapiens, UniProt P49327).
T1 construct: Expression of the recombinant thioesterase domain of FAS using pTrcHis-TOPO vector (Invitrogen) was as described in Kridel et al. (2004); His tag (from pTrcHis-TOPO vector)
The data set can be described thus: Kinetic characterization of inhibitors, 4-MUH turnover by FAS TE. Type of data set: biochemical.

In data set [2] the target is T2, FAS holoenzyme (Homo sapiens, UniProt P49327).
T2 construct: Fatty acid synthesis by the FAS holoenzyme in cell lysates was measured by incorporation of; endogenous in cells; host or cells: MDA-MB-435 cell lysate
T2 sequence (P49327 2-2511 limits assumed): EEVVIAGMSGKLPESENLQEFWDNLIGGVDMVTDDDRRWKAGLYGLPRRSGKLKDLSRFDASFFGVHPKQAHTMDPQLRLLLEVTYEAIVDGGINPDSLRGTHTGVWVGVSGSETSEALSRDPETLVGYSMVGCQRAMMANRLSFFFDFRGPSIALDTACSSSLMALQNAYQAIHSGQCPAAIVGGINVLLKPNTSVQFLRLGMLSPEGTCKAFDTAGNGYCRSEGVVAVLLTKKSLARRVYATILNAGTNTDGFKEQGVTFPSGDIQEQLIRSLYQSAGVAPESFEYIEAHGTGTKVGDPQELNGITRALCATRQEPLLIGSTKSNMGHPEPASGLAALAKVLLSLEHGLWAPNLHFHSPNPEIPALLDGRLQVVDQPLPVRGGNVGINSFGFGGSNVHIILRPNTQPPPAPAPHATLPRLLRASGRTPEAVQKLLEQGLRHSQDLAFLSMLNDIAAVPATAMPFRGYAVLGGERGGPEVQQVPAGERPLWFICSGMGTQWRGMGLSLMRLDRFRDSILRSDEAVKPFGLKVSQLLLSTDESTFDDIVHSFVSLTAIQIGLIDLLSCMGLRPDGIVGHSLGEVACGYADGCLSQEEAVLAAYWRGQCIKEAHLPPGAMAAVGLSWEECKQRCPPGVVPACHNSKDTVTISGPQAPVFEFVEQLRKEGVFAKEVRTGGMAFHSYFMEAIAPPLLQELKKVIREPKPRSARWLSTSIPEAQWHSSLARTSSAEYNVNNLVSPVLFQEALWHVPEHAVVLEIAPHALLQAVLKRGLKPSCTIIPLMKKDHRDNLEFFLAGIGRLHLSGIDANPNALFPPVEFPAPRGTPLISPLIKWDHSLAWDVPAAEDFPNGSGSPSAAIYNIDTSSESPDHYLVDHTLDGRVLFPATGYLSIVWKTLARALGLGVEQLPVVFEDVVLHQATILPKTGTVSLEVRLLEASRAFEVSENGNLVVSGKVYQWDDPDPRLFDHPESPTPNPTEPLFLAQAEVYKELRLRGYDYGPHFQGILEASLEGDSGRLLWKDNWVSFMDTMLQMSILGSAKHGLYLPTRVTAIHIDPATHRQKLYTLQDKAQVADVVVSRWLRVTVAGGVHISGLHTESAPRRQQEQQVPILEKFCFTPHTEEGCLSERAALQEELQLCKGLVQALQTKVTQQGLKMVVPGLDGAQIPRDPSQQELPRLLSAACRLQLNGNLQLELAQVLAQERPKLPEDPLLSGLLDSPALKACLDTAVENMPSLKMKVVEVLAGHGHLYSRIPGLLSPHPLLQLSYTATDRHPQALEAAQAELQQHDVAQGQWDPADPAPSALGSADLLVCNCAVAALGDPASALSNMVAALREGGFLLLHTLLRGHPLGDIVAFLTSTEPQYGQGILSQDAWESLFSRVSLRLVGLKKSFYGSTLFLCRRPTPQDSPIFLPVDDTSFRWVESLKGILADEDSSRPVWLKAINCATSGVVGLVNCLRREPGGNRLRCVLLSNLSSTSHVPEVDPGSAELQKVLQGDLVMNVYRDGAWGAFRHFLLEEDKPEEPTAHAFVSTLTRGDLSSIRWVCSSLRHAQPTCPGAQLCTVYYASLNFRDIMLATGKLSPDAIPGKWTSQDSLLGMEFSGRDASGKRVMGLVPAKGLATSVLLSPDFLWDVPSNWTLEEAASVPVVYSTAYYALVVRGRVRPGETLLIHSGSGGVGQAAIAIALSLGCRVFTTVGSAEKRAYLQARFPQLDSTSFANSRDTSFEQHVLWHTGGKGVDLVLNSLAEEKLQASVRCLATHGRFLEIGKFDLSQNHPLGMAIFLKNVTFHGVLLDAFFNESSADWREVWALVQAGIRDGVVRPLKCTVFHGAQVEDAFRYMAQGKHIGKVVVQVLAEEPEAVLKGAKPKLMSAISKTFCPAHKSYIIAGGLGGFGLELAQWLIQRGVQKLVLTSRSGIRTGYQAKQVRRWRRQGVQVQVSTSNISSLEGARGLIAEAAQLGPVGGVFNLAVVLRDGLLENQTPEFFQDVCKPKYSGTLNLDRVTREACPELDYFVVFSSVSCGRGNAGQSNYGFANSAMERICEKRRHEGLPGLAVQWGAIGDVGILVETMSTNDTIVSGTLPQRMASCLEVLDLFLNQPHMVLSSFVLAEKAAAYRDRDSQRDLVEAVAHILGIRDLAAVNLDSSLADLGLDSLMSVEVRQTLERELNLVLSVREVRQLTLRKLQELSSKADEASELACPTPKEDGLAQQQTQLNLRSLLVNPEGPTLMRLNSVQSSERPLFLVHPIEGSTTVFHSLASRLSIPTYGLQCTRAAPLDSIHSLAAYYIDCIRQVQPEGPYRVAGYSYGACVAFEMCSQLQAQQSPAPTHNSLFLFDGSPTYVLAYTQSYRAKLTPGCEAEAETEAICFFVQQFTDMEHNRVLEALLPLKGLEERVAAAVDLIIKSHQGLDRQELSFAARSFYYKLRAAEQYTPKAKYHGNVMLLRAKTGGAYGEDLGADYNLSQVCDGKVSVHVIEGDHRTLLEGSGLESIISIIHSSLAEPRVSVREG
Kind of data set: Fatty acid synthesis in vitro, [14C] malonyl-CoA incorporation in MDA-MB-435 cell lysates. The following applies: for effect on fatty acid biosynthesis in cell lysates: 6.3 to 50 μM. Type of data set: biochemical.

Another data set is described as follows: Cytotoxicity, MTS assay. The following applies: human, MDA-MB-435 breast carcinoma cells, Cytotoxicity IC50 (μM), MDA-MB-435 cells. Background: Tetrazolium dyes change colour on reduction, which living cells bring about.
Data set [3] has as its target T1, human FAS TE. Kind of data set: Fluorogenic 4-MUH screening assay of recombinant FAS TE (primary and secondary screen). Type of data set: biochemical.
The target of data set [4] is T2, FAS holoenzyme. Kind of data set: Activity-based probe FP-BODIPY labeling of FAS TE active site in MDA-MB-435 cell lysates. Type of data set: binding. Conditions: MB-MDA-435 cell lysates, 50 nM probe.
For data set [5], the system named is MDA-MB-435 breast carcinoma cells. Kind of data set: Cytotoxicity, MTS assay. Conditions: read-out: Cytotoxicity IC50, MDA-MB-435 cells, 48 hours.

T1 sequence (P49327 2207-2511 limits assumed): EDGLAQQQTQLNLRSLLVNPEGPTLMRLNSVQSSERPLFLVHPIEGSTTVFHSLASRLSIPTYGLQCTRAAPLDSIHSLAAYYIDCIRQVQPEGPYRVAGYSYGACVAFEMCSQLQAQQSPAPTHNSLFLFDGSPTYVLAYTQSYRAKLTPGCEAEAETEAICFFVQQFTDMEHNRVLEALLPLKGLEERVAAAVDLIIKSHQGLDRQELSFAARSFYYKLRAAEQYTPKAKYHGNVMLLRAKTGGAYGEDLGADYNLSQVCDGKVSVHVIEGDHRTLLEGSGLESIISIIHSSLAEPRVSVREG

For `Cc1ccc(Br)c(-c2ccc(C=C3C(=O)NC(=S)NC3=O)o2)c1` [RDR019 (1), 5-((5-(2-bromo-5-methylphenyl)furan-2-yl)methylene)-2-thioxodihydropyrimidine-4,6(1H,5H)-dionc], on human FAS TE [1], the Ki is 0.11 µM, the “partial versus pure non-competitive inhibition (Km/Vmax(i) versus [I])” value is reported as “partial non-competitive inhibitor” and the “type of inhibition of FAS TE (double reciprocal plots)” value is on record as “non-competitive inhibitors”. Moreover, on FAS holoenzyme [2], the IC50 is ~20 µM and the “effect on fatty acid biosynthesis in cell lysates” value is “completely abrogated fatty acid biosynthesis”. It took 20.6 µM to reach half-maximal inhibition in “Cytotoxicity, MTS assay” (IC50 at 48 h).

Consider `CN(C)c1ccc(C/C=C2/C(=O)NC(=S)N(c3ccccc3F)C2=O)cc1` [RDR057 (10), (Z)-5-(2-(4-(dimethylamino)phenyl)ethylidene)-1-(2-fluorophenyl)-2-thioxodihydropyrimidine-4,6(1H,5H)-dione], for which, at human FAS TE [3], the IC50 is 4.3 µM.

Regarding `CN1C(=O)NC(=O)/C(=C/c2ccc(-c3ccc([N+](=O)[O-])cc3Br)o2)C1=O` [RDR102 (2), (Z)-5-((5-(2-bromo-4-nitrophenyl)furan-2-yl)methylene)-1-methylpyrimidine-2,4,6(1H,3H,5H)-trione], at human FAS TE [1], the Ki was determined as 0.1 µM. The “concentration of complete inhibition of FP-BODIPY binding” value at FAS holoenzyme [4] is reported as “approximately 50 μM”. On FAS holoenzyme [2], the IC50 was ~20 µM and the “effect on fatty acid biosynthesis in cell lysates” value was “completely abrogated fatty acid biosynthesis”. This compound also displayed an IC50 at 48 h in “Cytotoxicity, MTS assay” of 14.2 µM.

As for `COc1cccc(N2C(=O)NC(=O)/C(=C/C/C=C/c3ccccc3[N+](=O)[O-])C2=O)c1` [RDR203 (9), (Z)-1-(3-methoxyphenyl)-5-((E)-4-(2-nitrophenyl)but-3-enylidene)pyrimidine-2,4,6(1H,3H,5H)-trione], the IC50 on human FAS TE [3] is 2 µM.

In the case of `O=C1NC(=O)C(=Cc2ccc(-c3cc([N+](=O)[O-])ccc3O)o2)C(=O)N1` [RDR256 (5), 5-((5-(2-hydroxy-5-nitrophenyl)furan-2-yl)methylene)pyrimidine-2,4,6(1H,3H,5H)-trione], at human FAS TE [3], the IC50 was found to be 9.2 µM.

Take `O=C1NC(=O)C(=Cc2ccc(-c3ccccc3C(=O)O)o2)C(=O)N1` [RDR317 (6), 2-(5-((2,4,6-trioxotetrahydropyrimidin-5(6H)-ylidene)methyl)furan-2-yl)benzoic acid]: the IC50 at human FAS TE [3] amounted to 29 µM.

With `O=C1NC(=S)NC(=O)C1=Cc1ccc(-c2ccc(C(=O)O)cc2)o1` [RDR423 (4), 4-(5-((4,6-dioxo-2-thioxotetrahydropyrimidin-5(6H)-ylidene)methyl)furan-2-yl)benzoic acid], at human FAS TE [3], the IC50 was determined as 5.3 µM.

As to `CCOc1ccc(C/C=C2/C(=O)NC(=O)N(c3ccc(OCC)cc3)C2=O)cc1` [RDR506 (11), (Z)-1-(4-ethoxyphenyl)-5-(2-(4-ethoxyphenyl)ethylidene)pyrimidine-2,4,6(1H,3H,5H)-trione], at human FAS TE [3], the IC50 is 14.5 µM.

For `Cc1cccc(N2C(=O)NC(=O)/C(=C/Nc3ccccc3C)C2=O)c1` [RDR564 (12), (Z)-1-m-tolyl-5-((o-tolylamino)methylene)pyrimidine-2,4,6(1H,3H,5H)-trione], on human FAS TE [3], the IC50 came to 105 µM.

`COc1ccc(N2C(=O)NC(=O)/C(=C/C/C=C/c3ccccc3)C2=O)c(OC)c1` [RDR755 (7), (Z)-1-(2,4-dimethoxyphenyl)-5-((E)-4-phenylbut-3-enylidene)pyrimidine-2,4,6(1H,3H,5H)-trione]: at human FAS TE [1], affinity was put at a Ki of 0.12 µM and the “type of inhibition of FAS TE (double reciprocal plots)” value was “non-competitive inhibitors”. The compound further returned an IC50 at 48 h in “Cytotoxicity, MTS assay” of 1.6 µM. The IC50 in data set [5] is 1.61 µM.

For the compound `O=C1NC(=O)N(c2ccccc2)C(=O)/C1=C\C/C=C/c1ccccc1[N+](=O)[O-]` [RDR914 (8), (Z)-5-((E)-4-(2-nitrophenyl)but-3-enylidene)-1 - phenylpyrimidine-2,4,6(1H,3H,5H)-trione], the results for the IC50 (on human FAS TE [3]; in data set [5]) were 1.5 µM and 9.53 µM, respectively. The 50% inhibitory concentration (IC50) at 48 h in the data set “Cytotoxicity, MTS assay” was found to be 9.5 µM.

As for `COc1ccc(-c2ccc(C=C3C(=O)NC(=S)NC3=O)o2)c([N+](=O)[O-])c1` [RDR924 (3), 5-((5-(4-methoxy-2-nitrophenyl)furan-2-yl)methylene)-2-thioxodihydropyrimidine-4,6(1H,5H)-dione], the IC50 on human FAS TE [3] came to 4.4 µM. Also, the “concentration of complete inhibition of FP-BODIPY binding” value on FAS holoenzyme [4] was “approximately 50 μM”.
